# Source: patent US20090247404A1, “METHOD FOR IMPROVING HARVESTABILITY OF CROPS” (priority 2006, published 2009)
# What was measured:
# Type in all cases: in vivo
# [1] = tested on: cotton (GOSHI, Gossypium hirsutum L.); assay: Test A: field trial, preharvest application of harvest aids alone and with Compound 4 to cotton (cv. Fibermax FM 989 RR); settings: for Boll Opening (%) / Desiccation (%) / State of Defoliation (%): 841 g a.i./ha
# Protocol: A field trial was conducted to evaluate the effects of mixtures of Compound 4 with commercial harvest aids on cotton (GOSHI, Gossypium hirsutum L.). Cotton seeds (cv. ‘Fibermax FM 989 RR’) were planted in mid spring season, 3.8 cm deep in a clay soil having 1.8% organic matter and a pH of 6.8. Plots were 9 m long by 3 m wide with rows spaced 96.5 cm apart. Seeds were spaced 10.2 cm apart within the rows. The field was managed using conventional tillage practices, and applications of herbicides and insecticides were used to maintain a healthy crop. The plots were arranged in a randomized complete block design with each treatment being replicated three times. Treatments were applied preharvest over the top of the crop in late summer, when approximately 65% of the bolls had opened, using a backpack sprayer delivering a spray volume of 140 L/ha using a pressure of 276 kPa. Treatments consisted of the commercial harvest aids tribufos and ethephon+AMADS alone and in combination with Compound 4, dissolved or suspended in water. The effects on the treated plants and untreated controls were recorded 4, 11 and 21 days after application. Plants were visually evaluated for harvest aid effects of boll opening, defoliation, desiccation, and whole plant (basal and terminal) regrowth inhibition. Results were calculated as the mean of the three replicates, based on a scale of 0 to 100 where 0 is no effect and 100 is complete expression of the effect.
# (§1) Results for Tests A, B1 and B2 are given in Table A, B1 and B2 respectively. Plants were visually evaluated for harvest aid effects of boll opening, defoliation, desiccation, and whole plant (basal and terminal) regrowth inhibition. “State of Defoliation (%)” represents a visual rating at a given DAA of the overall reduction in foliage on treated plants in a plot. It is based on a scale of 0 to 100%, where 0 represents an amount of foliage similar to control plants, and 100 indicates no leaves present. Plant regrowth assessments at a given DAA were made relative to appropriate controls after effects of defoliation were observed. Regrowth of the basal (“plant stalk”, below the top 15.3 cm of the plants) and terminal (“plant terminal”, top 15.3 cm of the plants) portions of the plants were separately evaluated on a visual rating scale of 0 to 100%, where 0 indicates no regrowth, and 100 indicates complete regrowth. The regrowth evaluations involved overall assessment of renewed or continued growth and development, which included: node and internodal development and elongation, and leaf formation, development and growth. These regrowth evaluations were recorded as “Regrowth %” and subsequently converted in the tables to “Regrowth Inhibition (%)”, which was calculated as 100%−YT, where YT equals the mean Regrowth % of three replicates for a respective treatment.
# [2] = tested on: cotton (GOSHI, Gossypium hirsutum L.); assay: Test B1: field trial, preharvest application of harvest aids alone and with Compound 4 to cotton (cv. DP 434); settings: for inhibition at 5 g/ha / inhibition at 10 g/ha / inhibition at 20 g/ha / inhibition at 1262 g/ha / inhibition at 421 g/ha: Gossypium hirsutum
# Protocol: A field trial was conducted to evaluate the effects of mixtures of Compound 4 with commercial harvest aids on cotton (GOSHI, Gossypium hirsutum L.). Delta and Pine Land Co. cotton seeds (cv. ‘DP 434’) were planted in mid spring season, 3.8-cm deep in a fine-texture loam soil comprising 40% sand, 36% silt, and 24% clay. Soil organic matter was 1.8%; pH was 6.6. Plots were 9.1 m long by 3.0 m wide with rows spaced 96.5 cm apart. Seeds were spaced 10.2 cm apart within the rows. The field was managed using conventional tillage practices, and applications of herbicides and insecticides were used to maintain a healthy crop. The plots were arranged in a randomized complete block design with each treatment being replicated four times. Treatments were applied preharvest over the top of the crop in late summer, when approximately 65% of the bolls had opened, using a tractor-mounted sprayer delivering a spray volume of 140 L/ha at a pressure of 241 kPa. Treatments consisted of the commercial harvest aids tribufos, ethephon, and ethephon+AMADS alone and in combination with Compound 4, dissolved or suspended in water. Plants were evaluated for harvest aid effects including defoliation and regrowth inhibition at 4, 7, 14, and/or 22 days after application (DAA). Individual results were recorded and data reported as the means of the three replicates.
# as §1
# [3] = tested on: cotton (GOSHI, Gossypium hirsutum L.); assay: Test B2: field trial, preharvest application of harvest aids alone and with Compound 4 to cotton (cv. DP 117BRIIRF); settings: for inhibition at 5 g/ha / inhibition at 10 g/ha / inhibition at 20 g/ha / inhibition at 1262 g/ha / inhibition at 421 g/ha: Gossypium hirsutum, 336 h
# Protocol: A field trial was conducted to evaluate the effects of mixtures of Compound 4 with commercial harvest aids on cotton (GOSHI, Gossypium hirsutum L.). Delta and Pine Land Co. cotton seeds (cv. ‘DP 117BRIIRF’) were planted in mid spring season, 2.0-cm deep in a clay soil. Plots were 12.19 m long by 3.86 m wide with rows spaced 96.5 cm apart. The field was managed using conventional tillage practices, and applications of herbicides and insecticides were used to maintain a healthy crop. The plots were arranged in a randomized complete block design with each treatment being replicated four times. Treatments were applied preharvest over the top of the crop in late summer, when approximately 65% of the bolls had opened, using a tractor-mounted sprayer delivering a spray volume of 140.3 L/ha at a pressure of 193 kPa. Treatments consisted of the commercial harvest aids tribufos, ethephon, and ethephon+AMADS alone and in combination with Compound 4, dissolved or suspended in water. Plants were evaluated for harvest aid effects including defoliation and regrowth inhibition at 4, 7, and 14 DAA. Individual results were recorded and data reported as the means of the three replicates.
# as §1
# [4] = treatments including Compound 4
# [5] = plant terminal and plant stalk, 14 DAA
smiles,measurement,setting,value
"COC(=O)c1nc(C2CC2)nc(N)c1Cl [Compound 4, methyl 6-amino-5-chloro-2-cyclopropyl-4-pyrimidinecarboxylate]","desiccation, combination with Compound 4 compared to ethephon+AMADS or tribufos alone",[1]; 11 days after application,increased
same,"defoliation, combination with Compound 4 compared to ethephon+AMADS or tribufos alone",[1]; 21 days after application,dramatically increased
same,"regrowth inhibition, combination with Compound 4 compared to ethephon+AMADS or tribufos alone",[1]; 21 days after application,dramatically increased
same,boll opening effects of the commercial harvest aids in combination with Compound 4,[1]; compared to the untreated plants,did not interfere
same,inhibition of basal and terminal regrowth,[1]; [4],effective for inhibiting both basal and terminal regrowth
same,State of Defoliation (%),"[2]; 5 g a.i./ha, 4 DAA",13%
same,State of Defoliation (%),"[2]; 5 g a.i./ha, 7 DAA",18%
same,State of Defoliation (%),"[2]; 5 g a.i./ha, 14 DAA",23%
same,State of Defoliation (%),"[2]; 10 g a.i./ha, 4 DAA",8%
same,State of Defoliation (%),"[2]; 10 g a.i./ha, 7 DAA",18%
same,State of Defoliation (%),"[2]; 10 g a.i./ha, 14 DAA",21%
same,State of Defoliation (%),"[2]; 20 g a.i./ha, 4 DAA",13%
same,State of Defoliation (%),"[2]; 20 g a.i./ha, 7 DAA",24%
same,State of Defoliation (%),"[2]; 20 g a.i./ha, 14 DAA",23%
same,inhibition at 5 g/ha,"[2]; 336 h, 5 g a.i./ha, 14 DAA, read-out: Plant Stalk (Below 15.3-cm) Regrowth Inhibition (%)",100%
same,inhibition at 5 g/ha,"[2]; 336 h, 5 g a.i./ha, 14 DAA, read-out: Plant Terminal (Top 15.3-cm) Regrowth Inhibition (%)",100%
same,inhibition at 10 g/ha,"[2]; 336 h, 10 g a.i./ha, 14 DAA, read-out: Plant Stalk (Below 15.3-cm) Regrowth Inhibition (%)",100%
same,inhibition at 10 g/ha,"[2]; 336 h, 10 g a.i./ha, 14 DAA, read-out: Plant Terminal (Top 15.3-cm) Regrowth Inhibition (%)",100%
same,inhibition at 20 g/ha,"[2]; 336 h, 20 g a.i./ha, 14 DAA, read-out: Plant Stalk (Below 15.3-cm) Regrowth Inhibition (%)",100%
same,inhibition at 20 g/ha,"[2]; 336 h, 20 g a.i./ha, 14 DAA, read-out: Plant Terminal (Top 15.3-cm) Regrowth Inhibition (%)",100%
same,inhibition at 5 g/ha,"[2]; 528 h, 5 g a.i./ha, 22 DAA, read-out: Plant Stalk (Below 15.3-cm) Regrowth Inhibition (%)",100%
same,inhibition at 10 g/ha,"[2]; 528 h, 10 g a.i./ha, 22 DAA, read-out: Plant Stalk (Below 15.3-cm) Regrowth Inhibition (%)",100%
same,inhibition at 20 g/ha,"[2]; 528 h, 20 g a.i./ha, 22 DAA, read-out: Plant Stalk (Below 15.3-cm) Regrowth Inhibition (%)",100%
same,"regrowth inhibition, addition of Compound 4 compared to ethephon, ethephon+AMADS or tribufos alone",[2]; [5],dramatically increased
same,inhibition of basal and terminal regrowth,[2]; [4],effective for inhibiting both basal and terminal regrowth
same,State of Defoliation (%),"[3]; 5 g a.i./ha, 4 DAA",3%
same,State of Defoliation (%),"[3]; 5 g a.i./ha, 7 DAA",4%
same,State of Defoliation (%),"[3]; 5 g a.i./ha, 14 DAA",10%
same,State of Defoliation (%),"[3]; 10 g a.i./ha, 4 DAA",3%
same,State of Defoliation (%),"[3]; 10 g a.i./ha, 7 DAA",4%
same,State of Defoliation (%),"[3]; 10 g a.i./ha, 14 DAA",11%
same,State of Defoliation (%),"[3]; 20 g a.i./ha, 4 DAA",4%
same,State of Defoliation (%),"[3]; 20 g a.i./ha, 7 DAA",9%
same,State of Defoliation (%),"[3]; 20 g a.i./ha, 14 DAA",15%
same,inhibition at 5 g/ha,"[3]; 5 g a.i./ha, 14 DAA, read-out: Plant Stalk (Below 15.3-cm) Regrowth Inhibition (%)",100%
same,inhibition at 5 g/ha,"[3]; 5 g a.i./ha, 14 DAA, read-out: Plant Terminal (Top 15.3-cm) Regrowth Inhibition (%)",97%
same,inhibition at 10 g/ha,"[3]; 10 g a.i./ha, 14 DAA, read-out: Plant Stalk (Below 15.3-cm) Regrowth Inhibition (%)",100%
same,inhibition at 10 g/ha,"[3]; 10 g a.i./ha, 14 DAA, read-out: Plant Terminal (Top 15.3-cm) Regrowth Inhibition (%)",100%
same,inhibition at 20 g/ha,"[3]; 20 g a.i./ha, 14 DAA, read-out: Plant Stalk (Below 15.3-cm) Regrowth Inhibition (%)",100%
same,inhibition at 20 g/ha,"[3]; 20 g a.i./ha, 14 DAA, read-out: Plant Terminal (Top 15.3-cm) Regrowth Inhibition (%)",100%
same,"regrowth inhibition, addition of Compound 4 compared to ethephon, ethephon+AMADS or tribufos alone",[3]; [5],dramatically increased
same,inhibition of basal and terminal regrowth,[3]; [4],effective for inhibiting both basal and terminal regrowth
"O=P(O)(O)CCCl [Ethephon, reference compound]",State of Defoliation (%),"[2]; 1262 g a.i./ha, 4 DAA",54%
same,State of Defoliation (%),"[2]; 1262 g a.i./ha, 7 DAA",73%
same,State of Defoliation (%),"[2]; 1262 g a.i./ha, 14 DAA",79%
same,inhibition at 1262 g/ha,"[2]; 336 h, 1262 g a.i./ha, 14 DAA, read-out: Plant Stalk (Below 15.3-cm) Regrowth Inhibition (%)",90%
same,inhibition at 1262 g/ha,"[2]; 336 h, 1262 g a.i./ha, 14 DAA, read-out: Plant Terminal (Top 15.3-cm) Regrowth Inhibition (%)",75%
same,inhibition at 1262 g/ha,"[2]; 528 h, 1262 g a.i./ha, 22 DAA, read-out: Plant Stalk (Below 15.3-cm) Regrowth Inhibition (%)",22%
same,State of Defoliation (%),"[3]; 1262 g a.i./ha, 4 DAA",58%
same,State of Defoliation (%),"[3]; 1262 g a.i./ha, 7 DAA",63%
same,State of Defoliation (%),"[3]; 1262 g a.i./ha, 14 DAA",48%
same,inhibition at 1262 g/ha,"[3]; 1262 g a.i./ha, 14 DAA, read-out: Plant Stalk (Below 15.3-cm) Regrowth Inhibition (%)",80%
same,inhibition at 1262 g/ha,"[3]; 1262 g a.i./ha, 14 DAA, read-out: Plant Terminal (Top 15.3-cm) Regrowth Inhibition (%)",60%
"CCCCSP(=O)(SCCCC)SCCCC [Tribufos, S,S,S-tributylphosphorotrithioate, reference compound]",Boll Opening (%),[1]; 4 DAA,70%
same,Desiccation (%),[1]; 4 DAA,32%
same,State of Defoliation (%),[1]; 4 DAA,68%
same,Boll Opening (%),[1]; 11 DAA,78%
same,Desiccation (%),[1]; 11 DAA,8%
same,State of Defoliation (%),[1]; 11 DAA,80%
same,State of Defoliation (%),[1]; 21 DAA,35%
same,inhibition at 841 g/ha,"[1]; Gossypium hirsutum, 504 h, read-out: Regrowth Inhibition (%)",25%
same,State of Defoliation (%),"[2]; 421 g a.i./ha, 4 DAA",49%
same,State of Defoliation (%),"[2]; 421 g a.i./ha, 7 DAA",76%
same,State of Defoliation (%),"[2]; 421 g a.i./ha, 14 DAA",81%
same,inhibition at 421 g/ha,"[2]; 336 h, read-out: Plant Stalk (Below 15.3-cm) Regrowth Inhibition (%)",84%
same,inhibition at 421 g/ha,"[2]; 336 h, read-out: Plant Terminal (Top 15.3-cm) Regrowth Inhibition (%)",47%
same,inhibition at 421 g/ha,"[2]; 528 h, read-out: Plant Stalk (Below 15.3-cm) Regrowth Inhibition (%)",29%
same,State of Defoliation (%),"[3]; 421 g a.i./ha, 4 DAA",50%
same,State of Defoliation (%),"[3]; 421 g a.i./ha, 7 DAA",56%
same,State of Defoliation (%),"[3]; 421 g a.i./ha, 14 DAA",53%
same,inhibition at 421 g/ha,[3]; read-out: Plant Stalk (Below 15.3-cm) Regrowth Inhibition (%),81%
same,inhibition at 421 g/ha,[3]; read-out: Plant Terminal (Top 15.3-cm) Regrowth Inhibition (%),44%
